Laboratory results: the kinase profiling compilation of Christmann-Franck et al. (2016)

What was measured:
Test in all cases: KINOMEscan competition binding
Conditions in all cases: compound 10.0 µM
[1] = biological target: BRSK1 (human) (UniProt Q8TDC3)
[2] = biological target: CDK18 (human) (UniProt Q07002)
[3] = biological target: STK11 (human) (UniProt Q15831)
[4] = biological target: MAP3K10 (human) (UniProt Q02779)
[5] = biological target: PLK1 (human) (UniProt P53350)
[6] = biological target: MAPK9 (human) (UniProt P45984)
MAPK9 (human), sequence (P45984 whole entry, looked up): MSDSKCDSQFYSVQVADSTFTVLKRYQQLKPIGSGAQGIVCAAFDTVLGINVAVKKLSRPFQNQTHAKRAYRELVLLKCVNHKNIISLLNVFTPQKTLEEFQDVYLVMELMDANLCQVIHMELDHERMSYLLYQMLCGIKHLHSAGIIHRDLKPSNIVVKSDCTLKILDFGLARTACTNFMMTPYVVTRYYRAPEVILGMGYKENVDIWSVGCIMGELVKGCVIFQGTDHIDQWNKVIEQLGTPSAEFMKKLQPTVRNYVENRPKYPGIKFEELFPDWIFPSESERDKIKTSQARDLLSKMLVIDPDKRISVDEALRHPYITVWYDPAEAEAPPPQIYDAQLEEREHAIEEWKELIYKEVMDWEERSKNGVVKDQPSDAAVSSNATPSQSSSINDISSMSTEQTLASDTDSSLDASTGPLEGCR

[7] = biological target: NTRK2 (human) (UniProt Q16620)
[8] = biological target: SRPK1 (human) (UniProt Q96SB4)
SRPK1 (human), sequence (Q96SB4 whole entry, looked up): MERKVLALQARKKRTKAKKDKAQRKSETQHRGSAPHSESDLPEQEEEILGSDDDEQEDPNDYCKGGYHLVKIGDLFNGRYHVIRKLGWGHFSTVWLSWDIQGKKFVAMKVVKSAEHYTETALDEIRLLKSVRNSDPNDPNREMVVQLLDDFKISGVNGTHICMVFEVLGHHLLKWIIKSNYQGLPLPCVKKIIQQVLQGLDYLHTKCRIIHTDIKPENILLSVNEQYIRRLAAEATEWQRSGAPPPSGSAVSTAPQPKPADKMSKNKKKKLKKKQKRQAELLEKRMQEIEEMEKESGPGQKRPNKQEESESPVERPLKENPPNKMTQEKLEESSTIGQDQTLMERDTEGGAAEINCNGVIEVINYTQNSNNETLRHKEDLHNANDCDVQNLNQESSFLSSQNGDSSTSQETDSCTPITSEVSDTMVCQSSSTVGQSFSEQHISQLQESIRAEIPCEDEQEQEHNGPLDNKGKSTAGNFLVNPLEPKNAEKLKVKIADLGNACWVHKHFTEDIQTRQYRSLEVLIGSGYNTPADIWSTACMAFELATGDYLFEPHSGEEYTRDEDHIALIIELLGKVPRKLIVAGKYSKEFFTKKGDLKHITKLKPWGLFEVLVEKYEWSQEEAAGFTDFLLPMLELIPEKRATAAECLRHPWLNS

[9] = biological target: CHUK (human) (UniProt O15111)
[10] = biological target: ACVRL1 (human) (UniProt P37023)
ACVRL1 (human), sequence (P37023 whole entry, looked up): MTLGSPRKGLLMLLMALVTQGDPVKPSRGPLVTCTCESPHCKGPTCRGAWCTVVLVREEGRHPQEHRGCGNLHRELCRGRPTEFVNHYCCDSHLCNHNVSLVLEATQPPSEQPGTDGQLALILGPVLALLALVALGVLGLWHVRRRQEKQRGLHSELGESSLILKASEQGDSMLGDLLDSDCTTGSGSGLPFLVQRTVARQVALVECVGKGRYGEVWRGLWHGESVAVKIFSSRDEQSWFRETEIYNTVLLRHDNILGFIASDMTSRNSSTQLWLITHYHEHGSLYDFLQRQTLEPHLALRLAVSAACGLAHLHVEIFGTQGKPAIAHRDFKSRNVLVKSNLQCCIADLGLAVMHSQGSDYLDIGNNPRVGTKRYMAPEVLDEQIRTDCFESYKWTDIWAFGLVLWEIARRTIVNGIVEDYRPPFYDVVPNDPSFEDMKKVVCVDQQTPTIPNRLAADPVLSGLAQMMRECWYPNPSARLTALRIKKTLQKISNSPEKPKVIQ

[11] = biological target: JAK1 JH1 catalytic (human) (UniProt P23458)
[12] = biological target: WEE1 (human) (UniProt P30291)
[13] = biological target: STK17A (human) (UniProt Q9UEE5)
[14] = biological target: PDGFRB (human) (UniProt P09619)
[15] = biological target: PRKACA (human) (UniProt P17612)
[16] = biological target: MYLK2 (human) (UniProt Q9H1R3)
[17] = biological target: TTK (human) (UniProt P33981)
[18] = biological target: MAP2K2 (human) (UniProt P36507)
[19] = biological target: PRKD2 (human) (UniProt Q9BZL6)
[20] = biological target: MKNK1 (human) (UniProt Q9BUB5)
[21] = biological target: TYK2 JH1 catalytic (human) (UniProt P29597)
TYK2 JH1 catalytic (human), sequence (P29597 whole entry, looked up): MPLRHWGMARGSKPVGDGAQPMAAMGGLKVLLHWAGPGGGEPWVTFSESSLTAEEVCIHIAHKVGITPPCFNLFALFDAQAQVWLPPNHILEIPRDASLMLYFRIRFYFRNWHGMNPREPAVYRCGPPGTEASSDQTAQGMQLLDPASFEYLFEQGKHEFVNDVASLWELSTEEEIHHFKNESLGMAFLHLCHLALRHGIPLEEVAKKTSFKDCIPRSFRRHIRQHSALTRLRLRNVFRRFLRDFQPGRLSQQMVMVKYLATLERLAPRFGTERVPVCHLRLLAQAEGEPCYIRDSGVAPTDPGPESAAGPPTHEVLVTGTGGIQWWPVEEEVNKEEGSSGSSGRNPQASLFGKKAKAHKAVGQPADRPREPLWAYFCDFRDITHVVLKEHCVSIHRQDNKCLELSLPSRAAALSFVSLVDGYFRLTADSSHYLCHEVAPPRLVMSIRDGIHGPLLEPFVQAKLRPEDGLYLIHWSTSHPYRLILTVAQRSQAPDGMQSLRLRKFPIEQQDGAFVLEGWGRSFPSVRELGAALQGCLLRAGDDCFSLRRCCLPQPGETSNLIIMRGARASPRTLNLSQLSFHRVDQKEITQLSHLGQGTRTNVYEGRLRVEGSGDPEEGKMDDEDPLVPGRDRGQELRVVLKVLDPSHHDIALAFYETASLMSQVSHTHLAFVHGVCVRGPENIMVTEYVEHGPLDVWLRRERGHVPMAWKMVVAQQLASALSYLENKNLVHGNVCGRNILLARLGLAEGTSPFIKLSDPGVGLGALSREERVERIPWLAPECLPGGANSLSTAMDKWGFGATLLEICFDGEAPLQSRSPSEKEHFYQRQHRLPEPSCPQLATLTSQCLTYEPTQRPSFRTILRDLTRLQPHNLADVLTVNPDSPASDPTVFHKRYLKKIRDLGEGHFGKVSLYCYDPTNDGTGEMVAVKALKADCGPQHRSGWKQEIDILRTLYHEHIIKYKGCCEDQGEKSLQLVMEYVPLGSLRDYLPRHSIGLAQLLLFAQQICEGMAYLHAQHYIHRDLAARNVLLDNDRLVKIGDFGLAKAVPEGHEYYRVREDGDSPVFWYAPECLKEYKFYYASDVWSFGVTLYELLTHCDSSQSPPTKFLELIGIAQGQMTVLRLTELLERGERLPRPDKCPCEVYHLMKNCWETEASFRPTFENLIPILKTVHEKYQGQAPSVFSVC

[22] = biological target: RPS6KA2 KD1 (human) (UniProt Q15349)
RPS6KA2 KD1 (human), sequence (Q15349 whole entry, looked up): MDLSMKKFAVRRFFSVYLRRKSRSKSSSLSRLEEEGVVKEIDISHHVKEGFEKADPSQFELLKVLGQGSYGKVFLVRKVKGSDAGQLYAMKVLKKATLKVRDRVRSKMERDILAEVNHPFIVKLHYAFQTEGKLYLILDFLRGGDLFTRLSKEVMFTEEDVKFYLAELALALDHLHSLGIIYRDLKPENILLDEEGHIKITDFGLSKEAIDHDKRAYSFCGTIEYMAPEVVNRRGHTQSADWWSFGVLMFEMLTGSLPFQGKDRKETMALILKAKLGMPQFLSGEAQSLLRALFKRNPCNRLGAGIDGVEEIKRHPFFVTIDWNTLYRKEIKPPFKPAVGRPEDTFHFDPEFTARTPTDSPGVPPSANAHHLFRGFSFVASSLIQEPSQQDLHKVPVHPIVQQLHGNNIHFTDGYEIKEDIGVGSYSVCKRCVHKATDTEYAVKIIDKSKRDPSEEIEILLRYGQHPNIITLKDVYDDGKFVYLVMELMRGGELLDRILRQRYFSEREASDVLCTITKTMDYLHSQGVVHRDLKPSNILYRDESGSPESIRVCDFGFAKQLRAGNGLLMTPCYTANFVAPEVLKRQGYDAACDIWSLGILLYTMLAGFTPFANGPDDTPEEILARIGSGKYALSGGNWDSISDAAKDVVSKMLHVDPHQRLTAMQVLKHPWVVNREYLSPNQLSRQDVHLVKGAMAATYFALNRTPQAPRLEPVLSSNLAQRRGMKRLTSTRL

[23] = biological target: RPS6KA1 KD2 (human) (UniProt Q15418)
RPS6KA1 KD2 (human), sequence (Q15418 whole entry, looked up): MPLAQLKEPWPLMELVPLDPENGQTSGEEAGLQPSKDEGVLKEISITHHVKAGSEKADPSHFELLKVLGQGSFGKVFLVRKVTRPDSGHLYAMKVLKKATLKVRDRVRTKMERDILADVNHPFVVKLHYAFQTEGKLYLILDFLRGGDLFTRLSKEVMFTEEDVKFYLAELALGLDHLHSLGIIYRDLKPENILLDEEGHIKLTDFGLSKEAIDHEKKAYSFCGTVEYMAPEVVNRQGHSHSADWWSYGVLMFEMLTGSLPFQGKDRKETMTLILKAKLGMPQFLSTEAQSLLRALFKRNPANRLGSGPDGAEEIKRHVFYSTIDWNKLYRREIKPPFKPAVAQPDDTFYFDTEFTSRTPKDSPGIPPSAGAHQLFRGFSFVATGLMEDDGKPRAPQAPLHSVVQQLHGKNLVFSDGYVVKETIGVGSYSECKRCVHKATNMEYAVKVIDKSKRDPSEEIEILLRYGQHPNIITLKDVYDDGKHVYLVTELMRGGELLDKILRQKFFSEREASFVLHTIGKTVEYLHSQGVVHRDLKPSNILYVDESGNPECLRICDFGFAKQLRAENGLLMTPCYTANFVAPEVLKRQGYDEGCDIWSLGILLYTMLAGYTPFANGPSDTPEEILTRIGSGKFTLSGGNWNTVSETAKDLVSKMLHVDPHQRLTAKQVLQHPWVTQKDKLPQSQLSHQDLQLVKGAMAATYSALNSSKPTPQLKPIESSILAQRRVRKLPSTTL

[24] = biological target: IKBKB (human) (UniProt O14920)
IKBKB (human), sequence (O14920 whole entry, looked up): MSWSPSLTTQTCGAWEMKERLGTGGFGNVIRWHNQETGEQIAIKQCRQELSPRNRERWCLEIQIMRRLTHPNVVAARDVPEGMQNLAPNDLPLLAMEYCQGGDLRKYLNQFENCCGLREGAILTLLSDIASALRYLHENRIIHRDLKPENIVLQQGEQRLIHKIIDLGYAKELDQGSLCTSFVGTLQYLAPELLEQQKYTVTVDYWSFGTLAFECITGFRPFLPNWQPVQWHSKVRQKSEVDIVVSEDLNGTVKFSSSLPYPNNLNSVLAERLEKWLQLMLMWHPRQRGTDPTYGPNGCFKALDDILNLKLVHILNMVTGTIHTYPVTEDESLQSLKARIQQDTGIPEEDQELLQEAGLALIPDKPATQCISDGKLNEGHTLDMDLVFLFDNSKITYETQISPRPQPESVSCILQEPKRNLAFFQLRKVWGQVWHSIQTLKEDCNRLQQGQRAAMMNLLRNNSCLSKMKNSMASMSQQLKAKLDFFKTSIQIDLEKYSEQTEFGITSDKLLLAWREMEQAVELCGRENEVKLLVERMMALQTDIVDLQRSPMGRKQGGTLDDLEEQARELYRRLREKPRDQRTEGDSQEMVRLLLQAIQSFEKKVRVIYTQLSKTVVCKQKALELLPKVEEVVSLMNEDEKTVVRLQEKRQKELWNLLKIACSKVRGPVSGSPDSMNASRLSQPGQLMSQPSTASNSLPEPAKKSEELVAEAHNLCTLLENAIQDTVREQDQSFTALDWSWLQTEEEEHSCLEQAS

[25] = biological target: TAOK3 (human) (UniProt Q9H2K8)
[26] = biological target: CDK15 (human) (UniProt Q96Q40)
[27] = biological target: MAP3K11 (human) (UniProt Q16584)
[28] = biological target: MAPKAPK2 (human) (UniProt P49137)
[29] = biological target: STK33 (human) (UniProt Q9BYT3)
[30] = biological target: FYN (human) (UniProt P06241)
[31] = biological target: RIOK3 (human) (UniProt O14730)
[32] = biological target: SGK110 (human) (UniProt P0C264)
[33] = biological target: DCLK2 (human) (UniProt Q8N568)
[34] = biological target: CAMK2A (human) (UniProt Q9UQM7)
[35] = biological target: MAPK4 (human) (UniProt P31152)
[36] = biological target: CSNK1G1 (human) (UniProt Q9HCP0)
[37] = biological target: CDK7 (human) (UniProt P50613)
[38] = biological target: EPHB2 (human) (UniProt P29323)
[39] = biological target: TNK2 (human) (UniProt Q07912)
[40] = biological target: CDC42BPG (human) (UniProt Q6DT37)

Structure (SMILES) | kinase still bound, per cent of control [1] [%] | kinase still bound, per cent of control [2] [%] | kinase still bound, per cent of control [3] [%] | kinase still bound, per cent of control [4] [%] | kinase still bound, per cent of control [5] [%] | kinase still bound, per cent of control [6] [%] | kinase still bound, per cent of control [7] [%] | kinase still bound, per cent of control [8] [%] | kinase still bound, per cent of control [9] [%] | kinase still bound, per cent of control [10] [%] | kinase still bound, per cent of control [11] [%] | kinase still bound, per cent of control [12] [%] | kinase still bound, per cent of control [13] [%] | kinase still bound, per cent of control [14] [%] | kinase still bound, per cent of control [15] [%] | kinase still bound, per cent of control [16] [%] | kinase still bound, per cent of control [17] [%] | kinase still bound, per cent of control [18] [%] | kinase still bound, per cent of control [19] [%] | kinase still bound, per cent of control [20] [%] | other results
O=C(NC1CC1)c1cccc(-c2ccc3c(NC(=O)C4CC4)n[nH]c3c2)c1 | 64 | 58 | 45 | 95 | 78 | 50 | 61 | 43 | 76 | 100 | 100 | 84 | 96 | 24 | 100 | 12 | 42 | 82 | 100 | 69 | kinase still bound, per cent of control [21]: 40%; kinase still bound, per cent of control [22]: 96%; kinase still bound, per cent of control [23]: 68%; kinase still bound, per cent of control [24]: 78%; kinase still bound, per cent of control [25]: 33%; kinase still bound, per cent of control [26]: 84%; kinase still bound, per cent of control [27]: 100%; kinase still bound, per cent of control [28]: 100%; kinase still bound, per cent of control [29]: 100%; kinase still bound, per cent of control [30]: 79%; kinase still bound, per cent of control [31]: 6.8%; kinase still bound, per cent of control [32]: 100%; kinase still bound, per cent of control [33]: 100%; kinase still bound, per cent of control [34]: 88%; kinase still bound, per cent of control [35]: 100%; kinase still bound, per cent of control [36]: 85%; kinase still bound, per cent of control [37]: 18%; kinase still bound, per cent of control [38]: 98%; kinase still bound, per cent of control [39]: 100%; kinase still bound, per cent of control [40]: 62%
CCN1CCN(Cc2ccc(Nc3ncc4c(n3)N(C)c3ccccc3C(=O)N4C)cc2C(F)(F)F)CC1 | 41 | 97 | 89 | 100 | 27 | 57 | 60 | 82 | 100 | 100 | 93 | 91 | 100 | 56 | 100 | 88 | 77 | 89 | 25 | 100 | kinase still bound, per cent of control [21]: 2%; kinase still bound, per cent of control [22]: 37%; kinase still bound, per cent of control [23]: 23%; kinase still bound, per cent of control [24]: 100%; kinase still bound, per cent of control [25]: 0.1%; kinase still bound, per cent of control [26]: 76%; kinase still bound, per cent of control [27]: 84%; kinase still bound, per cent of control [28]: 100%; kinase still bound, per cent of control [29]: 36%; kinase still bound, per cent of control [30]: 20%; kinase still bound, per cent of control [31]: 38%; kinase still bound, per cent of control [32]: 0.6%; kinase still bound, per cent of control [33]: 1.3%; kinase still bound, per cent of control [34]: 53%; kinase still bound, per cent of control [35]: 100%; kinase still bound, per cent of control [36]: 7.6%; kinase still bound, per cent of control [37]: 4%; kinase still bound, per cent of control [38]: 100%; kinase still bound, per cent of control [39]: 24%; kinase still bound, per cent of control [40]: 92%
